What was measured:
[1] = molecular target: T1, Tyramine receptor (TyrR) (Drosophila melanogaster, UniProt P22270); assay: Effect on intracellular Ca2+ in cells expressing TyrR (Example 14); assay type: cell-based
T1 construct: expressed in transfected cells
T1 sequence (P22270 27-601): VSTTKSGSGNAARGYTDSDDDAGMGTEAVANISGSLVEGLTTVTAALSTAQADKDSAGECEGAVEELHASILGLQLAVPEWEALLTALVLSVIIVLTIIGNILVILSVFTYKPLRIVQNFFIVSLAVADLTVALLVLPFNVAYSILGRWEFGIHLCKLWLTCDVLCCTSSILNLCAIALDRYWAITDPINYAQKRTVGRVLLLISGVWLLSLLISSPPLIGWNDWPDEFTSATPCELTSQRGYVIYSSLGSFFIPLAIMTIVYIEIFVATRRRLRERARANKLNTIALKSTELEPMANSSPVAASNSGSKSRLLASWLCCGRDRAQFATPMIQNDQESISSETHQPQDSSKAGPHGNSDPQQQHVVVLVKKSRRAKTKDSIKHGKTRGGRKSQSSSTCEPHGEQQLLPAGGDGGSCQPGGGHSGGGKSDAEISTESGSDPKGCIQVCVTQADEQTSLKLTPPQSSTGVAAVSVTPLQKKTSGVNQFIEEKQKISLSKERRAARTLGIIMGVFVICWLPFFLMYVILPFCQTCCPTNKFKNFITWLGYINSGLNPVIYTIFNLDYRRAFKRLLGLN

[2] = molecular target: T1, Tyramine receptor (TyrR); assay: Effect on intracellular cAMP in cells expressing TyrR (Example 14); assay type: cell-based
[3] = molecular target: T1, Tyramine receptor (TyrR); assay: Tyramine receptor binding affinity in cells expressing TyrR (Example 14)
[4] = system: Hymenolepis nana; assay: H. nana in vivo, infected mice treated orally with single test agents Rx (Example 1); settings: 400 mg/kg orally daily for 5 days

Effects Intracellular Ca2+ (Yes or No) [1] | Effects Intracellular cAMP (Yes or No) [2] | Tyramine Receptor Binding Affinity (High or Low) [3] | SMILES | Egg Count (X ± SD), During Treatment 1st Day [4] | Egg Count (X ± SD), During Treatment 3rd Day [4]
Yes | Yes | low | Cc1ccc(C(C)C)cc1 [p-cymene] | – | –
Yes | Yes | – | CC(C)=CCC/C(C)=C/CO [Rx 5, geraniol] | 14 ± 13.9 | –
Yes | Yes | – | CCC(C)(O)CCCC(C)C (stereo not shown) [tetrahydrolinalool] | – | –
– | – | – | Cc1ccc(C(C)C)cc1O [Rx 4, carvacrol] | 5 ± 0.6 | 1 ± 1.9
Yes | No | high | C=CC(C)(O)CCC=C(C)C (stereo not shown) [linalool] | – | –
No | Yes | – | OCc1ccccc1 [benzyl alcohol] | – | –
Yes | Yes and No | – | C=C(C)[C@H]1CC=C(C)CC1 [d-limonene] | – | –
Yes | Yes | Low | CC=Cc1ccc(OC)cc1 [anethole] | – | –
No | Yes | – | CCC(=O)OCCc1ccccc1 [phenethyl proprionate] | – | –
Yes | Yes | – | CC12CCC(CC1)C(C)(C)O2 [Rx 6, cineol] | 5 ± 9.5 | 1 ± 1.2
Yes | No | – | OCC=Cc1ccccc1 [cinnamyl alcohol] | – | –

SMILES | Effects Intracellular Ca2+ (Yes or No) [1] | Effects Intracellular cAMP (Yes or No) [2] | Tyramine Receptor Binding Affinity (High or Low) [3] | Egg Count (X ± SD), During Treatment 1st Day [4] | Egg Count (X ± SD), During Treatment 3rd Day [4]
Cc1ccc(C(C)C)c(O)c1 [thymol] | Yes | No | high | – | –
CCCCCCCCCCCCOS(=O)(=O)[O-].[Na+] [sodium lauryl sulfate] | No | No | – | – | –
CC1=CCC2CC1C2(C)C (stereo not drawn) [α-pinene] | No | No | – | – | –
C=CCc1ccc(O)c(OC)c1 [Eugenol] | Yes | No | – | – | –
